Melting point data for 35 compounds are collected here from a melting point compilation (Tetko et al.; mined from patent text by program, amines drawn as free bases though some values may be those of a salt).

SMILES strings stand for the structures.

As for `C[C@@H](n1cnc2c(Cl)cc(Cl)cc2c1=O)[C@](O)(Cn1cncn1)c1ccc(F)cc1F`, the melting point fell in the range of 158 to 160 °C.

`Cc1cc(-c2ccc(C(F)(F)F)cc2)cc(-c2cccc(-c3ccnc(N)c3)n2)n1` came in with a melting point of 160 °C.

`CCCc1c(OCCCOc2cccc3c2CCCC3)ccc2c1OC(CCC(=O)O)(CCC(=O)N1CCCC1)CC2=O` (stereo not given): the melting point is 160 to 164 °C. Turning to `COCC(C)OC(=O)c1ccc([N+](=O)[O-])cc1[N+](=O)[O-]` (stereo not given), the melting point amounted to 42 °C. Compound `C(=C\c1nc(COc2ccc(CCCCCn3ccnc3)cc2)co1)/c1ccccc1` displayed a melting point of 101 to 102 °C. In the case of `CCOCn1c(C(=O)c2cc(C)cc(C)c2)c(CC)c(=O)[nH]c1=O` it was 184 °C; in that of `CNC(=O)ON=C1SCOC1C` (stereo not given), 70 to 71.5 °C; in that of `O=C(CCc1cc(C2CCCCC2)c(O)c(C2CCCCC2)c1)OCCCCCCOC(=O)CCc1cc(C2CCCCC2)c(O)c(C2CCCCC2)c1`, 113 to 115 °C.

Take `OCCCN1CCN2c3ccccc3Cc3ccccc3C2C1` (stereo not given): the melting point fell in the range of 127 to 128 °C.

For `CCNC(=O)OCCOc1ccc(Oc2ccc(F)cc2)cc1Cl`, the melting point lay in the range of 42 to 43 °C. In the case of `CCOC(=O)Cc1c(C(=O)O)c(CC)c(C(=O)c2ccc(Cl)cc2)n1C`, the melting point lay in the range of 184 to 186 °C.

In turn, `CNC(=NS(C)(=O)=O)NCCCCCc1nc(N)nc(N)n1` displayed a melting point of 194 to 195 °C. Compound `COc1cc2c(cc1N1CCN(C)CC1)N(C(=O)c1ccc(-c3ccc(-c4noc(C)n4)cc3C)cc1)CC2` returned a melting point of 213 to 214 °C. `Cc1cc(NC(=O)Nc2ccc(N(CCCl)CCCl)cc2)c2ccccc2n1` showed a melting point of 128 to 129 °C. The compound `CCOC(=O)C1N=C(c2ccccc2)c2cc([N+](=O)[O-])ccc2NC1=O` (stereo not given) showed a melting point of 271 °C. As for `COc1ccc(CCCCNC(=O)C(F)(F)F)cc1S(N)(=O)=O`, the melting point lay in the range of 145 to 147 °C. `COC1C=C(C)C(=O)CC(C)(C)C1OC(=O)c1ccccc1` (stereo not given): the melting point lay within 91.5 to 93.5 °C. `CONS(=O)(=O)c1ccc(Cl)c(Cl)c1` returned a melting point of 146 to 147 °C. The same measure for `COc1cc(OC)cc(-c2ncn(C)c2-c2cc(F)c(F)c(F)c2)c1`: 159 to 160 °C; for `COc1ccc(C[C@H](N)[C@H](O)c2ccc(F)cc2)cc1` (racemic): 78 to 79 °C. `COC(=O)c1cc2cc(CBr)ccc2s1` yielded a melting point of 108 to 110 °C.

Take `Cc1cc2c(cc1C(=O)c1ccc(C(O)=NOCc3ccccc3)cc1)C(C)(C)CCC2(C)C`: the melting point is 169 to 172 °C. On to `O=C1C(Br)CCN1c1ccc(OCc2ccccc2)cc1` (racemic), for which the melting point is 125 to 126 °C. `CCOC(=O)c1c(C)nc(O)nc1O`: the melting point was 145 to 148 °C. As for `O=C(O)CN1C(=O)C(NC(=O)[C@@H](S)Cc2ccccc2)CCC2CC=CC=C21` (stereo not given in full), the melting point was in the range of 107 to 111 °C. The same measure for `CCC(C1CCCC1)C(O)(c1ccc(O)cc1)c1ccc(OCCN(C)C)cc1` (stereo not given): 112 to 120 °C; for `COC(OC)c1cccc(-c2ccc(C(=O)O)cc2)c1`: 130 to 131 °C.

Turning to `CCOC(=O)c1ccc(N(C(C)=O)C(=O)c2ccc(C(=O)C(C)(C)C)cc2)cc1`, the melting point fell in the range of 91 to 94 °C. `Cc1sc(Nc2cccc(I)n2)nc1-c1cn[nH]c1`: the melting point is more than 260 °C. As to `O=CN1CCN(c2cc3c(cc2F)c(=O)c(C(=O)O)c2sccn23)CC1`, the melting point fell in the range of 335 to 336 °C. Turning to `CN(C)c1cc2c(cc1C(F)(F)F)NC(=O)CC(c1ccnc(C#N)c1)=N2`, the melting point was found to be 248 °C. The same measure for `Cc1c(C)c2c(c(C)c1Br)CC(C)(CBr)O2` (stereo not given): 60 to 61 °C; for `Cn1cc(C2=C(c3c4n(c5ccccc35)CCCC4)C(=O)NC2=O)c2ccccc21`: 286 to 289 °C. In turn, `Fc1cccc(OCc2nnc(-c3ccc4c(c3)CCO4)o2)c1` registered a melting point of 91 to 93 °C. The compound `Nc1ccc(NC(=O)NC(=O)c2c(F)cccc2F)cc1` came in with a melting point of 240 °C.
